What was measured:
Test in all cases: Kirby-Bauer agar disk diffusion
Staph aureus 525 = format: cell-based, Staphylococcus aureus; conditions: Table 4; 20 μg disk loading
MRSA USF655 = format: cell-based, Staphylococcus aureus; conditions: for Zones of Inhibition: Table 4, 20 μg disk loading; for zone of growth inhibition, average diameter: Table 3, 6-mm disks, 20 μg test compound, 24 hours
Protocol: (§1) In this study, a selection of N-methylthio-substituted β-lactams are examined for antimicrobial activity by the Kirby-Bauer disk diffusion method on agar plates. A variety of common Gram-positive and Gram-negative bacteria are tested, including clinical isolates of methicillin-resistant Staphylococcus aureus (MRSA).
(§2) Compound susceptibility measurements are obtained from agar disk diffusion experiments using 6-mm air-dried disks impregnated with 20 μg of the test compound. The values correspond to the average diameters in mm (triplicate experiments) for the zone of growth inhibition observed after 24 h. Staphylococcus aureus (ATCC 25923) and β-lactamase-producing strains of methicillin-resistant Staphylococcus aureus (labeled as MRSA USF652-659) are obtained from Lakeland Regional Medical Center, Lakeland, Fla. Staphylococcus epidermidis, Staphylococcus simulans, Staphylococcus simulans, and Microcossus luteus are clinical isolates from University of South Florida Medical Clinic. Nieserria gonnorhoeae (β-lactamase positive) is obtained from the Tampa Branch State Laboratory. PenG is penicillin G (potassium salt). Table 1 provides the zones of growth inhibition that are observed after 24 hours using the lactams of FIGS. 1A-1I (designated A-I, respectively).
(§3) Of particular interest is the ability of these compounds to retain their effectiveness against penicillin-resistant strains of Staphylococcus aureus, a dangerous hospital-borne pathogen which is becoming difficult to treat with conventional antibiotic therapy. The lactams were screened for antibacterial activity by disk diffusion on agar plates, and the resulting zones of bacterial growth inhibition measured (see Table 3; each lactam is designated by Figure number).
(§4) Table 3: Growth inhibition zones obtained from agar disk diffusion experiments using 6-mm air-dried disks impregnated with 20 μg of the test compound. The values correspond to the average diameters in mm for the zone of growth inhibition observed after 24 hours. Staphylococcus aureus and β-lactamase-producing strains of methicillin-resistant Staphylococcus aureus (labeled MRSA USF652-659) are obtained from a clinical testing laboratory at Lakeland Regional Medical Center, Lakeland, Fla.
(§5) Those compounds were tested for bioactivity using the Kirby-Bauer test on agar plates.
(§6) Biological activity is enhanced against β-lactamase producing strains of methicillin-resistant Staphylococcus aureus (MRSA). With the lactam shown in FIG. 11A serving as a lead structure, a series of other C-4 substituted derivatives (FIGS. 11B-11I) were investigated herein. Table 5 lists microbiological data for β-lactams from Kirby-Bauer Disc Diffusion Test Results (with each lactam identified by Figure number).
(§7) Scheme I summarizes the synthesis of ester compounds 4. 4-Carboxy benzaldehyde (1) is coupled with the appropriate alcohol using DCC/DMAP, followed by reaction with p-anisidine, to give imines 2. Staudinger coupling of methoxyacetyl chloride with imine 2 gives N-aryl protected β-lactam 3. N-Dearylation of β-lactam 3 with ceric ammonium nitrate and methylthiolation with N-(methylthio)phthalimide affords N-methylthio β-lactams 4. These compounds are tested for antibacterial activity by the Kirby-Bauer method of disc diffusion on agar plates. [drawing 7]

MRSA USF659 = format: cell-based, Staphylococcus aureus; conditions: for Zones of Inhibition: Table 4, 20 μg disk loading; for zone of growth inhibition, average diameter: Table 3, 6-mm disks, 20 μg test compound, 24 hours
Protocol: as §1, §2, §3, §4, §5, §6, §7

MRSA USF657 = format: cell-based, Staphylococcus aureus; conditions: for Zones of Inhibition: Table 4, 20 μg disk loading; for zone of growth inhibition, average diameter: Table 3, 6-mm disks, 20 μg test compound, 24 hours
Protocol: as §1, §2, §3, §4, §5, §6, §7

MRSA USF652 = format: cell-based, Staphylococcus aureus; conditions: for Zones of Inhibition: Table 4, 20 μg disk loading; for zone of growth inhibition, average diameter: Table 3, 6-mm disks, 20 μg test compound, 24 hours
Protocol: as §1, §2, §3, §4, §5, §6, §7

MRSA USF658 = format: cell-based, Staphylococcus aureus; conditions: for Zones of Inhibition: Table 4, 20 μg disk loading; for zone of growth inhibition, average diameter: Table 3, 6-mm disks, 20 μg test compound, 24 hours
Protocol: as §1, §2, §3, §4, §5, §6, §7

MRSA USF654 = format: cell-based, Staphylococcus aureus; conditions: for Zones of Inhibition: Table 4, 20 μg disk loading; for zone of growth inhibition, average diameter: Table 3, 6-mm disks, 20 μg test compound, 24 hours
Protocol: as §1, §2, §3, §4, §5, §6, §7

MRSA USF656 = format: cell-based, Staphylococcus aureus; conditions: for Zones of Inhibition: Table 4, 20 μg disk loading; for zone of growth inhibition, average diameter: Table 3, 6-mm disks, 20 μg test compound, 24 hours
Protocol: as §1, §2, §3, §4, §5, §6, §7

MRSA USF653 = format: cell-based, Staphylococcus aureus; conditions: for Zones of Inhibition: Table 4, 20 μg disk loading; for zone of growth inhibition, average diameter: Table 3, 6-mm disks, 20 μg test compound, 24 hours
Protocol: as §1, §2, §3, §4, §5, §6, §7

Micrococcus luteus = format: cell-based; conditions: Table 3, 6-mm disks, 20 μg test compound, 24 hours
Protocol: as §1, §2, §3, §4

[1] = system: Staphylococcus aureus (ATCC 25923); format: cell-based; conditions: Table 3, 6-mm disks, 20 μg test compound, 24 hours
Protocol: as §1, §2, §3, §4

[2] = system: Staphylococcus epidermidis; format: cell-based; conditions: Table 3, 6-mm disks, 20 μg test compound, 24 hours
Protocol: as §1, §2, §3, §4

[3] = system: S. saprophyticus (ATCC 3552); format: cell-based, Staphylococcus saprophyticus; conditions: Table 3, 6-mm disks, 20 μg test compound, 24 hours
Protocol: as §1, §2, §3, §4

S. simulans (ATCC 11631) = format: cell-based, Staphylococcus simulans; conditions: Table 3, 6-mm disks, 20 μg test compound, 24 hours
Protocol: as §1, §2, §3, §4

Structure (SMILES) | Zones of Inhibition (Staph aureus 525) [mm] | Zones of Inhibition (MRSA USF655) [mm] | Zones of Inhibition (MRSA USF659) [mm] | Zones of Inhibition (MRSA USF657) [mm] | Zones of Inhibition (MRSA USF652) [mm] | Zones of Inhibition (MRSA USF658) [mm] | Zones of Inhibition (MRSA USF654) [mm] | zone of growth inhibition, average diameter (Micrococcus luteus) [mm] | zone of growth inhibition, average diameter [1] [mm] | zone of growth inhibition, average diameter [2] [mm] | zone of growth inhibition, average diameter [3] [mm] | zone of growth inhibition, average diameter (S. simulans (ATCC 11631)) [mm] | zone of growth inhibition, average diameter (MRSA USF655) [mm] | zone of growth inhibition, average diameter (MRSA USF659) [mm] | zone of growth inhibition, average diameter (MRSA USF657) [mm] | zone of growth inhibition, average diameter (MRSA USF652) [mm] | zone of growth inhibition, average diameter (MRSA USF658) [mm] | zone of growth inhibition, average diameter (MRSA USF654) [mm] | zone of growth inhibition, average diameter (MRSA USF656) [mm] | zone of growth inhibition, average diameter (MRSA USF653) [mm] | further results
CCC(C)SN1C(=O)C(OC)C1c1ccccc1Cl (mixture of isomers) [sec-Butyl] | 32 | 34 | 33 | 33 | 38 | 35 | 35 |  |  |  |  |  |  |  |  |  |  |  |  |  | Zones of Inhibition (MRSA USF656): 36 mm; Zones of Inhibition (MRSA USF653): 34 mm
CCCCSN1C(=O)C(OC)C1c1ccccc1Cl (racemic) [Butylthio] | 25 | 23 | 24 | 26 | 26 | 20 | 23 |  |  |  |  |  |  |  |  |  |  |  |  |  | Zones of Inhibition (MRSA USF656): 25 mm; Zones of Inhibition (MRSA USF653): 27 mm
COC1C(=O)N(SC2CCCCC2)C1c1ccccc1Cl (racemic) [Cyclo-hexyl] | 21 | 22 | 22 | 23 | 25 | 26 | 21 |  |  |  |  |  |  |  |  |  |  |  |  |  | Zones of Inhibition (MRSA USF656): 23 mm; Zones of Inhibition (MRSA USF653): 20 mm
CCSN1C(=O)C(OC)C1c1ccccc1Cl (racemic) [Ethylthio] | 26 | 28 | 30 | 29 | 33 | 30 | 27 |  |  |  |  |  |  |  |  |  |  |  |  |  | Zones of Inhibition (MRSA USF656): 29 mm; Zones of Inhibition (MRSA USF653): 33 mm
COC1C(=O)N(SC)C1C#Cc1ccccc1 (racemic) [FIG. 2B] |  |  |  |  |  |  |  | 28 | 27 | 30 | 23 | 19 | 27 | 24 | 28 | 29 | 27 | 27 | 30 | 29 | 
COC1C(=O)N(SC)C1C=Cc1ccccc1 (racemic) [FIG. 3A] |  |  |  |  |  |  |  |  |  |  |  |  |  |  |  |  |  |  |  |  | zone of growth inhibition, average diameter (Micrococcus luteus; listed as 3A): 11 mm; zone of growth inhibition, average diameter ([1]; listed as 3A): 10 mm; zone of growth inhibition, average diameter ([2]; listed as 3A): 12 mm; zone of growth inhibition, average diameter ([3]; listed as 3A): 14 mm; zone of growth inhibition, average diameter (S. simulans (ATCC 11631); listed as 3A): 9 mm; zone of growth inhibition, average diameter (MRSA USF655; listed as 3A): 12 mm; zone of growth inhibition, average diameter (MRSA USF659; listed as 3A): 10 mm; zone of growth inhibition, average diameter (MRSA USF657; listed as 3A): 11 mm; zone of growth inhibition, average diameter (MRSA USF652; listed as 3A): 10 mm; zone of growth inhibition, average diameter (MRSA USF658; listed as 3A): 10 mm; zone of growth inhibition, average diameter (MRSA USF654; listed as 3A): 12 mm; zone of growth inhibition, average diameter (MRSA USF656; listed as 3A): 13 mm; zone of growth inhibition, average diameter (MRSA USF653; listed as 3A): 18 mm
COC1C(=O)N(SC)C1C=Cc1ccccc1 (racemic) [FIG. 3B] |  |  |  |  |  |  |  |  |  |  |  |  |  |  |  |  |  |  |  |  | zone of growth inhibition, average diameter (Micrococcus luteus; listed as 3B): 23 mm; zone of growth inhibition, average diameter ([1]; listed as 3B): 21 mm; zone of growth inhibition, average diameter ([2]; listed as 3B): 26 mm; zone of growth inhibition, average diameter ([3]; listed as 3B): 16 mm; zone of growth inhibition, average diameter (S. simulans (ATCC 11631); listed as 3B): 12 mm; zone of growth inhibition, average diameter (MRSA USF655; listed as 3B): 21 mm; zone of growth inhibition, average diameter (MRSA USF659; listed as 3B): 17 mm; zone of growth inhibition, average diameter (MRSA USF657; listed as 3B): 22 mm; zone of growth inhibition, average diameter (MRSA USF652; listed as 3B): 25 mm; zone of growth inhibition, average diameter (MRSA USF658; listed as 3B): 21 mm; zone of growth inhibition, average diameter (MRSA USF654; listed as 3B): 22 mm; zone of growth inhibition, average diameter (MRSA USF656; listed as 3B): 24 mm; zone of growth inhibition, average diameter (MRSA USF653; listed as 3B): 26 mm
CSN1C(=O)C(OC(C)=O)C1C=Cc1ccccc1 (racemic) [FIG. 3C] |  |  |  |  |  |  |  | 17 | 15 | 19 | 12 | 10 | 18 | 15 | 16 | 18 | 16 | 16 | 17 | 18 | 
CSN1C(=O)C(Oc2ccccc2)C1C=Cc1ccccc1 (racemic) [FIG. 3D] |  |  |  |  |  |  |  | 10 | 15 | 10 | 11 | 8 | 15 | 12 | 13 | 14 | 12 | 14 | 13 | 16 | 
COC1C(=O)N(SC)C1CCc1ccccc1 (racemic) [FIG. 3E] |  |  |  |  |  |  |  | 20 | 16 | 12 | 9 | 9 | 15 | 15 | 14 | 18 | 15 | 17 | 17 | 20 | 
CSN1C(=O)C(OC(C)=O)C1CCc1ccccc1 (racemic) [FIG. 3F] |  |  |  |  |  |  |  | 23 | 17 | 18 | 13 | 11 | 15 | 16 | 17 | 17 | 15 | 17 | 18 | 18 | 
CSN1C(=O)C(Oc2ccccc2)C1CCc1ccccc1 (racemic) [FIG. 3G] |  |  |  |  |  |  |  | 17 | 14 | 12 | 10 | 8 | 11 | 12 | 12 | 14 | 12 | 13 | 13 | 12 | 
